Bridges are numbered along the chain shown (N, C = ends). Where no end group is shown, it is not given here.
Assays:
Fn1 mRNA = test: qRT-PCR Fn1 mRNA; assay type: cell-based, mouse
Experimental: (§1) Reverse transcription (RT) and real-time quantitative PCR (qRT-PCR) were used to assess ACTA2/Acta2, Col1a1, Col3a1, Fn1, Eda-Fn1, Mmp9, Tgfb1, Ltbp1, Hic5, and Mrtfa mRNA expressions. Custom PCR primers were designed in-house (Table 2) and then synthesized by BGI (Beijing, China). Cells were grown in 6-well culture plates and washed with phosphate buffered saline (PBS) before lysis with TRIzon Reagent (CWBio, Beijing, China) and total RNA purification according to the manufacturer’s protocol. Reverse transcription was carried using the TransScript First-Strand cDNA Synthesis SuperMix kit according to the manufacturer’s protocol (TransGen, Beijing, China), using the random primer method for the initiation of cDNA synthesis. Nuclease-free H2O replaced the RNA sample to serve as a negative control for the reverse transcription reaction. For qRT-PCR, 10 µL 2× TransStart Top Green qPCR SuperMix was added to each well of a 96-well PCR plate containing 0.4 µL forward primer, 0.4 µL reverse primer, […], and nuclease-free water to a total volume of 20 µL. The qRT-PCR reaction was completed using a CFX96 Real-Time PCR Detection System (Bio-Rad Laboratories, Hercules, CA, USA). Amplification used the following parameters: 94 °C for 30 s, followed by 40 cycles of 94 °C for 5 s, 55 °C for 15 s, 72 °C for 10 s, and then a dissociation stage (melt-curve). […]

[1] = system: Mrtfa mRNA in NIH/3T3 fibroblasts; test: qRT-PCR Mrtfa mRNA; assay type: cell-based, mouse; settings: 48 h, TGF-β1 10 ng/mL
Experimental: as §1

[2] = target: COL-RGD (RGD motif of collagen I) (Homo sapiens, UniProt P02452); test: Isothermal calorimetry, AF38Pep with COL-RGD; assay type: binding; settings: 25 °C, pH 7
Experimental: Custom designed peptides were resuspended in sterile-filtered HEPES buffered saline (140 mM NaCl, 1.5 mM Na2HPO4, 50 mM HEPES; pH 7). The larger EDA-FN binding peptide was diluted to 15 µM, degassed and added to the calorimetry chamber well. Three smaller test peptides (fibronectin EDA-peptide, FN-EDA; fibronectin RGD-peptide, FN-RGD and collagen I RGD-peptide, COL-RGD) were diluted to 300 µM, degassed and each was separately loaded into the calorimetry injection needle. The chamber well temperature was kept consistent at 25 °C. Blank buffer was used to replace either the well peptide or the injection needle peptide to account for background heat generation. Isothermal titration calorimetry was performed using a MicroCal iTC200 (Malvern Panalytical, Malvern, UK) and dissociation constant (KD) and association constant (KA) were calculated using the one set of sites model fitting (with number of binding sites assumed to be 1) in MicroCal Origin Software v8.5 (Malvern Panalytical).

[3] = system: human HFL1 lung fibroblast cells; test: Cytotoxicity/proliferation assay (CCK-8) HFL1; assay type: cell-based; settings: TGF-β1 stimulated HFL1, over 72 h
Experimental: HFL1 cells were cultured in Kaighn’s modified Ham’s F-12 (F-12K) medium (Sigma-Aldrich) containing NaHCO3 and HEPES buffered to pH 7. Cells were grown to confluence in T75 culture flasks in the presence of 10% fetal bovine serum (FBS; Gibco, Thermo Fisher Scientific, Waltham, MA, USA). HFL1 cells were subcultured using 0.05% trypsin at a ratio of 1:3. NIH/3T3 cells were cultured in Dulbecco’s Modified Eagle Medium (DMEM; HyClone, Thermo Fisher Scientific) containing 100 U/mL penicillin and 100 μg/mL streptomycin. Cells were grown to confluence in T75 culture flasks in the presence of 10% FBS. NIH/3T3 cells were subcultured using 0.05% trypsin/EDTA at a ratio of 1:3. All cells were maintained at 37 °C and 5% CO2, and growth medium was replenished every 3 days until experimentation. Cells were growth-arrested in serum-free medium for 48 h before experiments, and all experiments were performed under serum-free conditions using cells between passages 3 and 8.
Cells were seeded into 12-well culture plates at a density of 2.5 × 10^4 and when cultures reached 50% confluence, the culture medium was replaced with fresh serum-free F12K or serum-free DMEM/F12 for 48 h (growth arrest). […] Absorbance was measured at 450 nm wavelength using a Bio-Rad optical plate reader.

[4] = system: FAK in NIH/3T3 fibroblasts; test: Western blot FAK phosphorylation and total protein; assay type: cell-based, mouse; settings: TGF-β1 10 ng/mL, AF38Pep 10 µg/mL
Experimental: Total protein was extracted from cells in RIPA lysis buffer containing 1% protease inhibitor cocktail, 1% phenylmethylsulfonyl fluoride, and 1% sodium orthovanadate (Santa Cruz Biotechnology, Santa Cruz, CA, USA). Protein was quantified by Micro BCA Protein Assay Kit (Thermo Fisher Scientific) before 7.5% SDS-PAGE and transfer to nitrocellulose. Membranes were blocked with 5% bovine serum albumin (BSA; Sigma-Aldrich)/0.5% Tween-20 (Sigma-Aldrich)/PBS for 1 h, RT, followed by incubation with primary antibodies diluted in 1% BSA/0.1% Tween-20/PBS, overnight at 4 °C. Primary antibodies were: anti-phosphoY204/Y187 ERK1/2 (1:1000); anti-ERK1/2 (1:1000); anti-phosphoY861 FAK (1:1000); anti-FAK (1:2000). Immunoblotting for anti-GAPDH (1:2500) was used as a protein loading control. Following wash steps, membranes were incubated in goat anti-rabbit IgG H&L secondary antibody (horseradish peroxidase, HRP conjugate, […]) (Abcam; 1:5000 dilution, 1% BSA/0.1% Tween-20/PBS). Detection was performed using Immobilon reagent (Merck Millipore, Burlington, MA, USA) and imaged using a Tanon 5500 Chemiluminescent Imaging System (Tanon, Shanghai, China).

osteopontin (OPN) = test: Western blot total protein OPN; assay type: cell-based; settings: 48 h, TGF-β1+AF38Pep
Eda-Fn1 mRNA = test: qRT-PCR Eda-Fn1 mRNA; assay type: cell-based, mouse
Experimental: as §1

Col1a1 mRNA = test: qRT-PCR Col1a1 mRNA; assay type: cell-based, mouse
Experimental: as §1

VMPYISTTPAKPCTSENCGNSWYGGFKSKNENKIYFIN (disulfide 13-18 (inferred)) [AF38Pep]
fibronectin mRNA expression (Fn1 mRNA; 72 h, TGF-β1 + AF38Pep): all inhibited
fibronectin mRNA expression (Fn1 mRNA; by 48 h, vs TGF-β1-only): significant attenuation
MRTFA mRNA expression [1]: attenuated
ITC interaction (thermogram) [2]: not between AF38Pep and FN-RGD or COL-RGD
cytotoxicity/proliferation [3]: not detrimental to cell numbers
FAK phosphorylation ([4]; 1 h): significantly suppressed
FAK phosphorylation ([4]; 12 h): significantly less activation
total FAK protein ([4]; 12 h): marginally reduced
OPN protein expression (osteopontin (OPN)): significantly attenuated
EDA-FN splice variant mRNA expression (Eda-Fn1 mRNA; 72 h, TGF-β1 + AF38Pep): all inhibited
EDA-FN splice variant mRNA expression (Eda-Fn1 mRNA; by 48 h, vs TGF-β1-only): significant attenuation
collagen type I mRNA expression (Col1a1 mRNA; 72 h, TGF-β1 + AF38Pep): all inhibited
collagen type I mRNA expression (Col1a1 mRNA; by 48 h, vs TGF-β1-only): significant attenuation

Reference: PMC7913925, “Design and Evaluation of a Polypeptide That Mimics the Integrin Binding Site for EDA Fibronectin to Block Profibrotic Cell Activity” (International Journal of Molecular Sciences, 2021)
